Publication PMC13267291, “In vivo functional profiling and structural characterization of the human GLP1R A316T variant” (Science Advances, 2026)

Assays:
[1] = test system: hGLP1R^−/− mouse islets transduced with SNAP/FLAG-hGLP1R^WT versus ^A316T; islets from hGLP1R^+/+ versus ^A316T/A316T mice; assay: Lysosomal inhibition assay, surface GLP-1R in mouse islets; assay type: cell-based; details: 400 nM, 2 hours; n = 3 and n = 4; Fig. 7E,F
Protocol: (§1) INS-1 832/3 Glp1r^−/− SNAP/FLAG-hGLP1R^WT or ^A316T cells on coverslips, mouse hGLP1R^−/− islets transduced with pAV-SNAP/FLAG-hGLP1R^WT or ^A316T adenoviruses, or hGLP1R^A316T/A316T and ^+/+ control islets were incubated for 2 hours ± 400 nM bafilomycin-A1 (Sigma-Aldrich), an established vacuolar H^+-ATPase and lysosomal trafficking inhibitor ([98]), in complete medium. Cells and transduced hGLP1R^−/− islets were then labeled with 1 μM SNAP-Surface 549, and hGLP1R^A316T/A316T versus ^+/+ islets were treated with exendin-9–TMR in complete medium at 37°C for 10 min. Cells were washed and fixed in 4% PFA, mounted in Prolong Diamond antifade reagent with DAPI, while islets were loaded onto glass-bottom MatTek dishes in PBS, and images were acquired by confocal microscopy with a Zeiss LSM-780 inverted confocal laser scanning microscope and a 63×/1.4 numerical aperture oil immersion objective from the Imperial College FILM Facility. Images were analyzed using Fiji.

[2] = test system: INS-1 832/3 Glp1r^−/− SNAP/FLAG-hGLP1R^A316T cells; assay: Lysosomal inhibition assay, surface GLP-1R in INS-1 832/3 cells; assay type: cell-based, rat; details: 400 nM, 2 hours; comparable to WT; n = 5; Fig. 7D
Protocol: as §1

[3] = test system: human GLP-1R A316T versus WT; assay: Insulin secretion assay in mouse islets; assay type: cell-based; details: HFHS-fed mouse islets; 11 mM glucose + 100 nM; fig. S6I
Protocol: Purified mouse islets used for insulin secretion assays were treated in 24-well nonadherent plates. Eight islets were used per replicate with three technical replicates per condition. For acute studies, islets were preincubated for 1 hour in KRBH buffer containing 0.1% (w/v) bovine serum albumin (BSA) (10775835001, Roche) and 3 mM glucose before incubation with 11 mM glucose ± 100 nM GLP-1RAs or the GLP-1R antagonist exendin-9 in KRBH buffer in a shaking 37°C water bath (80 rpm) for 1 hour. For overnight studies, preincubation was carried out in RPMI 1640 medium containing FBS, P/S, and 3 mM glucose, followed by treatment with medium supplemented with 11 mM glucose ± GLP-1RAs for 16 hours. Supernatants containing secreted insulin were collected, centrifuged at 1000 rpm for 1 min, and transferred to fresh tubes. For total insulin content, islets were lysed using acidic ethanol (75% ethanol, 1.5 mM HCl). Lysates were sonicated 3× 10 s each in a water bath and centrifuged at 10,000g for 10 min, and supernatants were collected. For human islets, the same experiment was performed with islets previously transduced with pAV-SNAP/FLAG-hGLP1R^WT or ^A316T adenoviruses (generated by VectorBuilder) at a multiplicity of infection of 1, 24 hours before the start of experiments. Insulin secretion assays with the human EndoC-βH3 cell line were performed following 3 weeks of treatment with 4-hydroxytamoxifen as above, followed by transduction with pAV-SNAP/FLAG-hGLP1R^WT or ^A316T adenoviruses, with insulin secretion assessed as previously described ([54]), with the following modifications: After preincubation with 0.5 mM glucose KRBH buffer, cells were stimulated with 15 mM glucose ± exendin-4 for 60 min. Total and secreted insulin samples from islets and cells were stored at −20°C until quantification using an Insulin Ultra-Sensitive HTRF kit (#62IN2PEG, Revvity) in a PHERAstar plate reader (BMG Labtech), according to the manufacturer’s instructions.

Row | Molecule | Surface GLP-1R A316T after lysosomal inhibition in islets [1] | Surface expression levels of GLP-1R A316T after lysosomal inhibition [2] | Basal insulin secretion of A316T islets on exposure to antagonist/inverse agonist [3]
1 | CO/C1=C\C(C)=C\[C@@H](C)[C@@H](O)[C@@H](C)C/C(C)=C/C=C/[C@H](OC)[C@@H]([C@@H](C)[C@@H](O)[C@H](C)[C@@]2(O)C[C@@H](O)[C@H](C)[C@@H](C(C)C)O2)OC1=O [bafilomycin A1] | same effect | complete recovery of surface expression levels | 
2 | exendin-9 |  |  | significantly reduced
